The values that follow come from PubChem BioAssay AID192 (DTP/NCI, 2004).

Where “and” joins values, the source holds several entries; their conditions need not be identical. Equal entries are not always repeated. Inconclusive results and toxic doses are left out.

In the test the test system is BDF1 mice, B16 melanoma ip, median survival T/C. Put plainly: NCI In Vivo Anticancer Drug Screen. Data for tumor model B16 Melanoma (intraperitoneal) in B6D2F1 (BDF1) mice. The conditions noted are these: endpoint: median survival time, higher = longer survival. In a few lines:
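Each result divides a survival or tumor-size measurement in the compound-treated group by the same measurement in the vehicle group.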

The mark [1] stands for this setting: dose: 25.0 mg/kg/injection, schedule: Q01DX009 (ip), vehicle: saline with Tween-80.
The mark [2] stands for this setting: dose: 50.0 mg/kg/injection, schedule: Q01DX009 (ip), vehicle: saline with Tween-80.
Setting [3] is: dose: 100.0 mg/kg/injection, schedule: Q01DX009 (ip), vehicle: saline with Tween-80.

On to `CC1C=NNC1=O` (stereo not drawn), for which the T/C reads like this: under setting [1], 90 % of control; under setting [2], 90 % of control; under setting [3], 95 % of control; (dose: 100.0 mg/kg/injection, schedule: Q04DX003 (ip), vehicle: other) 105 % of control; (dose: 125.0 mg/kg/injection, schedule: Q01DX009 (ip), vehicle: other) 105 % of control; (dose: 125.0 mg/kg/injection, schedule: Q04DX003 (ip), vehicle: other) 100 % of control. Besides, the T/C runs as follows: (dose: 200.0 mg/kg/injection, schedule: Q01DX009 (ip), vehicle: saline with Tween-80) 90 % of control; (dose: 200.0 mg/kg/injection, schedule: Q04DX003 (ip), vehicle: other) 95 % of control; (dose: 250.0 mg/kg/injection, schedule: Q01DX009 (ip), vehicle: other) 100 % of control; (dose: 250.0 mg/kg/injection, schedule: Q04DX003 (ip), vehicle: other) 100 % of control; (dose: 266.0 mg/kg/injection, schedule: Q04DX003 (ip), vehicle: saline with Tween-80) 197 % of control; (dose: 400.0 mg/kg/injection, schedule: Q01DX009 (ip), vehicle: saline with Tween-80) 116 % of control. In addition, the T/C was 92 % of control (dose: 400.0 mg/kg/injection, schedule: Q04DX003 (ip), vehicle: other); 200 % of control (dose: 400.0 mg/kg/injection, schedule: Q04DX003 (ip), vehicle: saline with Tween-80); 111 % of control (dose: 500.0 mg/kg/injection, schedule: Q01DX009 (ip), vehicle: other); 102 % of control (dose: 500.0 mg/kg/injection, schedule: Q04DX003 (ip), vehicle: other); 183 % of control (dose: 600.0 mg/kg/injection, schedule: Q04DX003 (ip), vehicle: saline with Tween-80).
In the case of `Cn1c2nc3ccccc3c-2nc2ccccc21`, the T/C by setting is: (dose: 1.56 mg/kg/injection, schedule: Q01DX009 (ip), vehicle: water) 95 % of control; (dose: 3.13 mg/kg/injection, schedule: Q01DX009 (ip), vehicle: water) 96 % of control; (dose: 6.25 mg/kg/injection, schedule: Q01DX009 (ip), vehicle: other) 105 % of control; (dose: 6.25 mg/kg/injection, schedule: Q01DX009 (ip), vehicle: water) 90 % of control; (dose: 12.5 mg/kg/injection, schedule: Q01DX009 (ip), vehicle: other) 104 % of control; (dose: 25.0 mg/kg/injection, schedule: Q01DX009 (ip), vehicle: other) 97 % of control. For the same compound, the T/C is 87 % of control (dose: 50.0 mg/kg/injection, schedule: Q01DX009 (ip), vehicle: Klucel (hydroxypropylcellulose) (HPC)) and 92 % of control (dose: 50.0 mg/kg/injection, schedule: Q01DX009 (ip), vehicle: other).
As for `C[C@@H](CN1CC(=O)NC(=O)C1)N1CC(=O)NC(=O)C1`, the T/C (dose: 8.0 mg/kg/injection, schedule: Q01DX009 (ip), vehicle: saline with Tween-80) was 100 % of control; the T/C (dose: 16.0 mg/kg/injection, schedule: Q01DX009 (ip), vehicle: saline with Tween-80) is 117 % of control; the T/C (dose: 16.0 mg/kg/injection, schedule: Q01DX009 (ip), vehicle: water) is 107 % of control and 122 % of control; the T/C (dose: 25.0 mg/kg/injection, schedule: Q04DX003 (ip), vehicle: water) is 101 % of control and 107 % of control; the T/C (dose: 32.0 mg/kg/injection, schedule: Q01DX009 (ip), vehicle: saline with Tween-80) was 112 % of control; the T/C (dose: 32.0 mg/kg/injection, schedule: Q01DX009 (ip), vehicle: water) was 111 % of control. Further, the T/C by setting is: (dose: 50.0 mg/kg/injection, schedule: Q04DX003 (ip), vehicle: water) 103 % of control; (dose: 100.0 mg/kg/injection, schedule: Q04DX003 (ip), vehicle: water) 104 % of control and 112 % of control; (dose: 128.0 mg/kg/injection, schedule: Q01DX009 (ip), vehicle: water) 113 % of control; (dose: 200.0 mg/kg/injection, schedule: Q04DX003 (ip), vehicle: water) 103 % of control; (dose: 256.0 mg/kg/injection, schedule: Q01DX009 (ip), vehicle: water) 87 % of control; (dose: 400.0 mg/kg/injection, schedule: Q04DX003 (ip), vehicle: water) 117 % of control. Also, the T/C (dose: 800.0 mg/kg/injection, schedule: Q04DX003 (ip), vehicle: water) is 88 % of control.
Turning to `O=C1N[C@@H]([C@H]2CC[C@H](Cl)CN2)C(=O)N[C@H]1[C@H]1CC[C@H](Cl)CN1`, the T/C is 107 % of control (dose: 0.05 mg/kg/injection, schedule: Q01DX009 (ip), vehicle: saline); 116 % of control (dose: 0.1 mg/kg/injection, schedule: Q01DX009 (ip), vehicle: saline); 103 % of control (dose: 0.5 mg/kg/injection, schedule: Q04DX003 (ip), vehicle: saline); 115 % of control (dose: 1.0 mg/kg/injection, schedule: Q01DX001 (ip), vehicle: saline); 119 % of control (dose: 1.0 mg/kg/injection, schedule: Q04DX003 (ip), vehicle: saline); 119 % of control (dose: 1.25 mg/kg/injection, schedule: Q01DX001 (ip), vehicle: saline). Besides, the T/C is, setting by setting: (dose: 2.0 mg/kg/injection, schedule: Q01DX001 (ip), vehicle: saline) 120 % of control; (dose: 2.0 mg/kg/injection, schedule: Q04DX003 (ip), vehicle: saline) 124 % of control; (dose: 2.5 mg/kg/injection, schedule: Q01DX001 (ip), vehicle: saline) 114 % of control; (dose: 10.0 mg/kg/injection, schedule: Q01DX009 (ip), vehicle: alkali diluted with saline) 30 % of control; (dose: 16.0 mg/kg/injection, schedule: Q01DX001 (ip), vehicle: saline) 154 % of control; (dose: 20.0 mg/kg/injection, schedule: Q01DX009 (ip), vehicle: alkali diluted with saline) 30 % of control. The T/C is, setting by setting: (dose: 40.0 mg/kg/injection, schedule: Q01DX009 (ip), vehicle: alkali diluted with saline) 27 % of control; (dose: 80.0 mg/kg/injection, schedule: Q01DX009 (ip), vehicle: alkali diluted with saline) 16 % of control.
Take `O=Cc1c(O)c2ccccc2[nH]c1=O`: the T/C runs as follows: under setting [1], 106 % of control and 120 % of control; under setting [2], 102 % of control and 107 % of control; under setting [3], 122 % of control.
`COc1ccc(CSC(=S)NNc2ccccc2)cc1`: the T/C (dose: 100.0 mg/kg/injection, schedule: Q01DX009 (ip), vehicle: Klucel (hydroxypropylcellulose) (HPC)) is 107 % of control; the T/C (dose: 200.0 mg/kg/injection, schedule: Q01DX009 (ip), vehicle: Klucel (hydroxypropylcellulose) (HPC)) is 103 % of control; the T/C (dose: 400.0 mg/kg/injection, schedule: Q01DX009 (ip), vehicle: Klucel (hydroxypropylcellulose) (HPC)) is 106 % of control.
